In PMC5462828 (Scientific Reports, 2017):

T1: RXFP1 stably expressed in HEK293 cells (HEK-RXFP1) (human, UniProt Q9HBX9 1-757)
T1 sequence (looked up): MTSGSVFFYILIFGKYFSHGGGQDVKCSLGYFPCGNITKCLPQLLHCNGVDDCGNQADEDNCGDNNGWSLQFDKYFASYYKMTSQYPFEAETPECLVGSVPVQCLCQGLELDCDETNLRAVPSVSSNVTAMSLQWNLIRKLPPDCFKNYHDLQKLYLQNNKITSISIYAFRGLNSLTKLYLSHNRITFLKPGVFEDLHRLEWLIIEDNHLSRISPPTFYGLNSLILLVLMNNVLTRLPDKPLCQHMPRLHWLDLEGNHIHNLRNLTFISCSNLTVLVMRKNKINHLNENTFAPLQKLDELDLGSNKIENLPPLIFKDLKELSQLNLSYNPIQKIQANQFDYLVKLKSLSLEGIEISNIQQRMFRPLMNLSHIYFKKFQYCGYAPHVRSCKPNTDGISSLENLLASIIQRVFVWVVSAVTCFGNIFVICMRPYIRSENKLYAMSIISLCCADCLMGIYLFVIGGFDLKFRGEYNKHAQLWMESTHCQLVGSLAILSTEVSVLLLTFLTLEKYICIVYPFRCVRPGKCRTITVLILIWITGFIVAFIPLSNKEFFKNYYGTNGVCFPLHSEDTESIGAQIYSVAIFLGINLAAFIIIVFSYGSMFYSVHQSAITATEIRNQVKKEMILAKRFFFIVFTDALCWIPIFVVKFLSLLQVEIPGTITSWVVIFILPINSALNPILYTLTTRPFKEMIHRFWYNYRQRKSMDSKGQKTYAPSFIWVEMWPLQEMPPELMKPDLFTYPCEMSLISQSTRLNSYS


Legend:
[1] = molecular target: RXFP1 stably expressed in HEK293 cells (HEK-RXFP1) (human) (UniProt Q9HBX9); assay: radioligand binding; kinetics on HEK-RXFP1 cells in 96-well plates, without ML290: association with 100 pM 125I-H2 relaxin over time; dissociation after 90 min equilibration, started with 200 nM unlabelled H2 relaxin
[2] = molecular target: RXFP1 stably expressed in HEK293 cells (HEK-RXFP1) (human) (UniProt Q9HBX9); assay: radioligand binding; kinetics on HEK-RXFP1 cells in 96-well plates, with ML290 (1 μM): association with 100 pM 125I-H2 relaxin over time; dissociation after 90 min equilibration, started with 200 nM unlabelled H2 relaxin
[3] = system: ML290-mediated cAMP accumulation; assay: Effect of signalling pathway inhibitors on ML290-mediated cAMP accumulation in human primary vascular cells; format: cell-based; settings: NF449 10 μM, NF023 10 μM, mSIRK 5 μM, gallein 50 μM, Wortmannin 100 nM, 30 min
Protocol: (§1) cAMP and cGMP accumulation was determined as previously described, [16]. Briefly, HEK293 cells were plated in 96-well plates (5 × 10^4 cells/well) and human primary cells were plated into 24-well plates (1 × 10^5 cells/well) and grown overnight to achieve a confluent monolayer. Prior to stimulation, HEK cells were serum-starved in DMEM containing 0.5% FBS v/v and primary cells were serum-starved in M199 medium for 4–6 hours. […] Levels of cAMP and cGMP were detected according to the manufacturer’s instructions (Perkin-Elmer, Australia).

[4] = system: ML290-mediated cGMP accumulation; assay: Effect of signalling pathway inhibitors on ML290-mediated cGMP accumulation in human primary vascular cells; format: cell-based; settings: NF449 10 μM, NF023 10 μM, mSIRK 5 μM, gallein 50 μM, Wortmannin 100 nM, 30 min
Protocol: as §1

[5] = system: p-Smad2; assay: Smad2 phosphorylation assay in human cardiac fibroblasts; format: cell-based; settings: HCFs; TGF-β1 2 ng/ml alone; 72 hours
Protocol: (§2) Cells were serum-starved in M199 medium for 24 hours prior sample collection. Cells were used between passages 1–4, while all experiments were performed four separate times in duplicate. Levels of p-Smad2 and p-Smad3 were detected using Sure-fire kits according to the manufacturer’s instructions (Perkin-Elmer, Australia).

[6] = system: p-Smad3; assay: Smad3 phosphorylation assay in human cardiac fibroblasts; format: cell-based; settings: HCFs; TGF-β1 2 ng/ml alone; 72 hours
Protocol: as §2

[7] = molecular target: T1, RXFP1 stably expressed in HEK293 cells …; assay: cell-based or functional assay
[8] = molecular target: T1, RXFP1 stably expressed in HEK293 cells …; assay: radioligand binding; competition on HEK-RXFP1 cells: 100 pM 125I-H2 relaxin against increasing unlabelled H2 relaxin, vehicle (0.1% DMSO), 90 min, room temperature; settings: one partner purified
[9] = molecular target: T1, RXFP1 stably expressed in HEK293 cells …; assay: radioligand binding; competition on HEK-RXFP1 cells: 100 pM 125I-H2 relaxin against increasing unlabelled H2 relaxin, in the presence of ML290 (1 μM), 90 min, room temperature; settings: one partner purified

| Molecule | ML290-mediated cAMP accumulation after inhibitor ([3]; HCAECs) | ML290-mediated cAMP accumulation after inhibitor ([3]; HUASMCs, L9A 5 μM) | ML290-mediated cAMP accumulation after inhibitor ([3]; HUVECs) | ML290-mediated cAMP accumulation after inhibitor ([3]; HUVSMCs, L9A 5 μM) | ML290-mediated cGMP accumulation after inhibitor ([4]; HCAECs) | ML290-mediated cGMP accumulation after inhibitor ([4]; HUASMCs, L9A 5 μM) | ML290-mediated cGMP accumulation after inhibitor ([4]; HUVECs) | ML290-mediated cGMP accumulation after inhibitor ([4]; HUVSMCs, L9A 5 μM) | further results |
| --- | --- | --- | --- | --- | --- | --- | --- | --- | --- |
| 125I-H2 relaxin (ligand) |  |  |  |  |  |  |  |  | koff [1]: 0.000833 s⁻¹; kon [1]: 3.5e+06 M⁻¹ s⁻¹; koff [2]: 0.000667 s⁻¹; kon [2]: 4.67e+06 M⁻¹ s⁻¹ |
| O=C(Nc1cccc(C(=O)Nc2ccc(S(=O)(=O)O)c3cc(S(=O)(=O)O)cc(S(=O)(=O)O)c23)c1)Nc1cccc(C(=O)Nc2ccc(S(=O)(=O)O)c3cc(S(=O)(=O)O)cc(S(=O)(=O)O)c23)c1 [NF023] | unaffected | no effect | unaffected | no effect | not significantly affected | no effect | not significantly affected | no effect |  |
| O=C1OC2(c3ccccc31)c1ccc(O)c(O)c1Oc1c2ccc(O)c1O [gallein] | unaffected | 5.2 ± 1.4 % response to 50 μM forskolin | unaffected | 3.2 ± 3.4 % response to 50 μM forskolin | not significantly affected | 15.6 ± 2.6% | not significantly affected | 14.3 ± 3.8% |  |
| O=C(Nc1cc(C(=O)Nc2ccc(S(=O)(=O)O)cc2S(=O)(=O)O)cc(C(=O)Nc2ccc(S(=O)(=O)O)cc2S(=O)(=O)O)c1)Nc1cc(C(=O)Nc2ccc(S(=O)(=O)O)cc2S(=O)(=O)O)cc(C(=O)Nc2ccc(S(=O)(=O)O)cc2S(=O)(=O)O)c1 [NF449] | 0.8 ± 3.9 % response to 50 μM forskolin | 6.0 ± 7.3 % response to 50 μM forskolin | 0.8 ± 5.7 % response to 50 μM forskolin | 4.7 ± 2.5 % response to 50 μM forskolin | 11.9 ± 5.3 % of the response to DEA | 24.3 ± 5.7% | 22.3 ± 3.0 % of the response to DEA | 18.8 ± 3.7% |  |
| COC[C@H]1OC(=O)c2coc3c2[C@@]1(C)C1=C(C3=O)[C@@H]2CCC(=O)[C@@]2(C)C[C@H]1OC(C)=O [Wortmannin] | unaffected | 7.2 ± 2.2 % response to 50 μM forskolin | unaffected | 6.4 ± 2.2 % response to 50 μM forskolin | not significantly affected | 21.8 ± 3.4% | not significantly affected | 14.3 ± 3.3% |  |
| TGF-β1: pro-fibrotic cytokine used to induce Smad2 and Smad3 phosphorylation |  |  |  |  |  |  |  |  | increase in p-Smad2 compared to vehicle-treated samples [5]: 2.21 ± 0.17 fold; increase in p-Smad3 compared to vehicle-treated samples [6]: 1.41 ± 0.07 fold |
| Human gene 2 relaxin (H2 relaxin) (ligand) chain 1: QLYSALANKCCHVGCTKRSLARFC chain 2: DSWMEEVIKLCGRELVRAQIAICGMSTWS |  |  |  |  |  |  |  |  | cAMP accumulation in HCAEC (endogenous RXFP1), pEC50 (efficacy in brackets as % of forskolin 50 μM) [7]: 8.9; cGMP accumulation in HCAEC (endogenous RXFP1), pEC50 (efficacy in brackets as % of DEA) [7]: 9.2; cGMP accumulation in HCF (endogenous RXFP1), 40 min, pEC50 (efficacy in brackets as % of DEA) [7]: 9.6; p-ERK1/2 in HEK-RXFP1 cells, 5 min, pEC50 (efficacy in brackets as % of 10% FBS) [7]: 9.5; p-p38MAPK in HEK-RXFP1 cells, 15 min, pEC50 (efficacy in brackets as % of sorbitol) [7]: 8.9; pKi [8]: 9.5; pKi [9]: 9.7 |
